In patent publication US6531456B1, “Gene therapy for the treatment of solid tumors using recombinant adeno-associated virus vectors” (Avigen, Inc., priority 1996, dated 2003):

Key:
[1] = tested on: U-251SP cells; experiment: In vitro bystander tumoricidal effect, coculture of transduced and non-transduced cells; assay type: cell-based, human; settings: 4.5 μg/mL ganciclovir, 3 days
Procedure: FIG. 3 depicts the in vitro cytocidal bystander effect observed in non-transduced cells that were cultured with HSV-tk transduced cells as described in Example 3. Cell co-cultures containing a total of 1×10^4 cells were formed by combining cells that were transduced with rAAVtk-IRES-hIL2 virions at the following ratios: 1:0, 1:1, 1:10, 1:100 and 0:1 (transduced:nontransduced cells). After a 24 hour incubation, the co-cultures were exposed to 4.5 μg/mL of ganciclovir and allowed to incubate for an additional 3 days. Numbers of living cells were counted using the trypan blue dye exclusion method. The Figure indicates % cell survival compared to the cultures containing only non-transduced cells (0:1). The data is presented a mean +/− a standard error deviation based on duplicate experiments.
In order to assess the in vitro bystander tumoricidal effect of HSV-tk transduced cells on neighboring non-transduced cells, the following study was carried out. U-251SP cells were incubated for 12 hours in DMEM medium containing rAAVtk-IRES-hIL2 virions at a MOI of 1.9×10^6. Since this MOI was greater than the MOI determined necessary for 100% transduction by the rAAVlacZ virions (e.g., 3×10^5 as determined above in Example 1), the incubated cells were considered to be 100% transduced. The rAAVtk-IRES-hIL2 transduced cells were cocultured with non-transduced U-251SP cells at ratios of 1:0, 1:1, 1:10, 1:100 and 0:1 (transduced:nontransduced cells) to provide 1×10^4 total cells per well in a 24 well tissue culture plate. 24 hours after the coculture was initiated, 4.5 μg/mL of ganciclovir (DENOSINE® Roche, Basel, Switzerland) was added to each well in fresh media. After 3 days, the numbers of living cells were determined using the trypan blue dye exclusion method.

[2] = tested on: human U-251SP glioma cells; experiment: In vitro sensitivity of rAAVtk-IRES-hIL2-transduced cells to ganciclovir; assay type: cell-based
Procedure: More particularly, transduced cells were exposed to varying amounts of GCV to assess their sensitivity to the pro-drug. In the study 1×10^4 human U-251SP glioma cells were incubated for 12 hours with rAAVtk-IRES-hIL2 at MOIs of 0, 3×10^2, 3×10^3, 3×10^4, 3×10^5, and 3×10^6. The transduced cells were then incubated for an additional 72 hours in fresh medium containing serial dilutions of GCV at a final concentration of from 0.1-100 μg/mL.
In order to determine if cells transduced with the HSV-tk gene had enhanced susceptibility to the cytocidal effects of GCV, the following study was carried out. Recombinant AAV virion-transduced cells were exposed to varying amounts of GCV to assess their sensitivity to the drug. Particularly, 1×10^4 human U-251SP glioma cells/well (cultured in 200 μL of complete medium) were incubated with various concentrations of rAAVtk-IRES-hIL2 (at MOIs of 0, 3×10^2, 3×10^3, 3×10^4, 3×10^5, and 3×10^6) for 12 hours. The transduced cells were then incubated for an additional 72 hours in fresh medium containing serial dilutions of GCV at a final concentration of from 0.1-100 μg/mL. The numbers of living cells were then determined using the trypan blue dye exclusion method, and compared with those of nontransduced cells cultured without GCV treatment.

[3] = 3 patients; cited from earlier work

SMILES: Nc1nc(O)c2ncn(COC(CO)CO)c2n1 [GCV, ganciclovir]
- tumoricidal effect compared with only non-transduced cells (0:1) ([1]; 1% rAAVtk-IRES-hIL2-transduced cells (1:100)): 15.1%
- tumoricidal effect compared with only non-transduced cells (0:1) ([1]; 10% rAAVtk-IRES-hIL2-transduced cells (1:10)): 58.1%
- sensitivity to GCV killing ([1]; 50% rAAVtk-IRES-hIL2-transduced cells (1:1)): as sensitive to GCV killing as were cultures containing 100% transduced cells
- inhibition ([2]; 4.5 μg/mL of GCV, rAAVtk-IRES-hIL2 at a MOI of 3×10^3): more than 80%
- IC50 ([2]; Homo sapiens, Glioma cell, GCV 72 hours, cells exposed to rAAVtk-IRES-hIL2 at a MOI of 3×10^3 or greater, read-out: TCID50): < 0.28 µg/mL
- effect on cell growth ([2]; high doses of GCV, non-transduced cells): mild inhibitory effect
- concentration in the CSF [3]: 310 to 680 ng/mL
- concentration in the plasma [3]: 440 to 2200 ng/mL
